Experimental data: ChEMBL document CHEMBL3885881, “DrugMatrix”

Species on record: Rattus norvegicus
Assay: DrugMatrix - Regimen: Daily Repeat
Type: toxicity, organism-based, Sprague-Dawley
Design: regimen Daily Repeat, gender Male, age 6-8 weeks
Conditions: in vivo, po, route oral GAVAGE, vehicle 100 % WATER; for ABSOLUTE BASOPHIL / ABSOLUTE EOSINOPHIL / ABSOLUTE LYMPHOCYTE / ABSOLUTE MONOCYTE / ABSOLUTE SEGMENTED NEUTROPHIL / BASOPHIL / EOSINOPHIL / ERYTHROCYTE COUNT / HEMATOCRIT / HEMOGLOBIN / LEUKOCYTE COUNT / LYMPHOCYTE / MEAN CORPUSCULAR HEMOGLOBIN / MEAN CORPUSCULAR HEMOGLOBIN CONCENTRATION / MEAN CORPUSCULAR VOLUME / MONOCYTE / NEUTROPHIL / NUCLEATED RED BLOOD CELLS / PLATELET COUNT: tissue Blood; for ALANINE AMINOTRANSFERASE / ALBUMIN / ALKALINE PHOSPHATASE / ASPARTATE AMINOTRANSFERASE / BLOOD UREA NITROGEN / CARBON DIOXIDE / CHLORIDE / CHOLESTEROL / CREATINE PHOSPHOKINASE / CREATININE / GLUCOSE / LACTATE DEHYDROGENASE / LIPASE / PHOSPHORUS / POTASSIUM / SODIUM / TOTAL BILIRUBIN / TOTAL PROTEIN / URIC ACID: tissue Plasma
[1] = 0 mg/kg, 72 h, dose level Control, time 3 day
[2] = 0 mg/kg, 120 h, dose level Control, time 5 day
[3] = 33 mg/kg, 72 h, dose level Low, time 3 day
[4] = 33 mg/kg, 120 h, dose level Low, time 5 day

C1CCN2C[C@@H]3C[C@@H](CN4CCCC[C@@H]34)[C@H]2C1 [SPARTEINE]
ABSOLUTE BASOPHIL [1]: 0 CELLS/uL
ABSOLUTE EOSINOPHIL [1]: 86.33 CELLS/uL
ABSOLUTE LYMPHOCYTE [1]: 12090.17 CELLS/uL
ABSOLUTE MONOCYTE [1]: 166.67 CELLS/uL
ABSOLUTE SEGMENTED NEUTROPHIL [1]: 1090.17 CELLS/uL
BASOPHIL [1]: 0%
EOSINOPHIL [1]: 0.67%
ERYTHROCYTE COUNT [1]: 5.57 x10E6/uL
HEMATOCRIT [1]: 35.33%
HEMOGLOBIN [1]: 13.83 G/DL
LEUKOCYTE COUNT [1]: 13.43 x10E3/uL
LYMPHOCYTE [1]: 89.83%
MEAN CORPUSCULAR HEMOGLOBIN [1]: 24.88 pg
MEAN CORPUSCULAR HEMOGLOBIN CONCENTRATION [1]: 39.15 G/DL
MEAN CORPUSCULAR VOLUME [1]: 63.52 fL
MONOCYTE [1]: 1.17%
NEUTROPHIL [1]: 8.33%
NUCLEATED RED BLOOD CELLS [1]: 0 /100WBC
PLATELET COUNT [1]: 1181.33 x10E3/uL
ALANINE AMINOTRANSFERASE [1]: 48.33 u/L
ALBUMIN [1]: 4.1 G/DL
ALKALINE PHOSPHATASE [1]: 395 u/L
ASPARTATE AMINOTRANSFERASE [1]: 81.83 u/L
BLOOD UREA NITROGEN [1]: 15.83 mg/dL
CARBON DIOXIDE [1]: 24.17 mmol/L
CHLORIDE [1]: 103.83 MEQ/L
CHOLESTEROL [1]: 63.67 mg/dL
CREATINE PHOSPHOKINASE [1]: 372.83 u/L
CREATININE [1]: 0.18 mg/dL
GLUCOSE [1]: 173.83 mg/dL
LACTATE DEHYDROGENASE [1]: 188.33 u/L
LIPASE [1]: 9.5 u/L
PHOSPHORUS [1]: 11.95 mg/dL
POTASSIUM [1]: 5.99 MEQ/L
SODIUM [1]: 144.43 MEQ/L
TOTAL BILIRUBIN [1]: 0.15 mg/dL
TOTAL PROTEIN [1]: 5.95 G/DL
URIC ACID [1]: 1.82 mg/dL
ABSOLUTE BASOPHIL [2]: 0 CELLS/uL
ABSOLUTE EOSINOPHIL [2]: 26.67 CELLS/uL
ABSOLUTE LYMPHOCYTE [2]: 7583.83 CELLS/uL
ABSOLUTE MONOCYTE [2]: 131.33 CELLS/uL
ABSOLUTE SEGMENTED NEUTROPHIL [2]: 674.83 CELLS/uL
BASOPHIL [2]: 0%
EOSINOPHIL [2]: 0.33%
ERYTHROCYTE COUNT [2]: 5.78 x10E6/uL
HEMATOCRIT [2]: 36.48%
HEMOGLOBIN [2]: 14.03 G/DL
LEUKOCYTE COUNT [2]: 8.42 x10E3/uL
LYMPHOCYTE [2]: 89.83%
MEAN CORPUSCULAR HEMOGLOBIN [2]: 24.3 pg
MEAN CORPUSCULAR HEMOGLOBIN CONCENTRATION [2]: 38.52 G/DL
MEAN CORPUSCULAR VOLUME [2]: 63.15 fL
MONOCYTE [2]: 1.67%
NEUTROPHIL [2]: 8.17%
NUCLEATED RED BLOOD CELLS [2]: 0 /100WBC
PLATELET COUNT [2]: 1186.67 x10E3/uL
ALANINE AMINOTRANSFERASE [2]: 50.17 u/L
ALBUMIN [2]: 4.07 G/DL
ALKALINE PHOSPHATASE [2]: 367.5 u/L
ASPARTATE AMINOTRANSFERASE [2]: 81.67 u/L
BLOOD UREA NITROGEN [2]: 16.17 mg/dL
CARBON DIOXIDE [2]: 32.33 mmol/L
CHLORIDE [2]: 101.5 MEQ/L
CHOLESTEROL [2]: 65.33 mg/dL
CREATINE PHOSPHOKINASE [2]: 255.33 u/L
CREATININE [2]: 0.17 mg/dL
GLUCOSE [2]: 139.33 mg/dL
LACTATE DEHYDROGENASE [2]: 95 u/L
LIPASE [2]: 10.5 u/L
PHOSPHORUS [2]: 10.38 mg/dL
POTASSIUM [2]: 6.11 MEQ/L
SODIUM [2]: 145.55 MEQ/L
TOTAL BILIRUBIN [2]: 0.17 mg/dL
TOTAL PROTEIN [2]: 5.98 G/DL
URIC ACID [2]: 0.93 mg/dL
ABSOLUTE BASOPHIL [3]: 0 CELLS/uL
ABSOLUTE EOSINOPHIL [3]: 58.33 CELLS/uL
ABSOLUTE LYMPHOCYTE [3]: 13527.67 CELLS/uL
ABSOLUTE MONOCYTE [3]: 237.33 CELLS/uL
ABSOLUTE SEGMENTED NEUTROPHIL [3]: 1176.67 CELLS/uL
BASOPHIL [3]: 0%
EOSINOPHIL [3]: 0.33%
ERYTHROCYTE COUNT [3]: 5.67 x10E6/uL
HEMATOCRIT [3]: 36.13%
HEMOGLOBIN [3]: 14 G/DL
LEUKOCYTE COUNT [3]: 15 x10E3/uL
LYMPHOCYTE [3]: 90%
MEAN CORPUSCULAR HEMOGLOBIN [3]: 24.8 pg
MEAN CORPUSCULAR HEMOGLOBIN CONCENTRATION [3]: 38.83 G/DL
MEAN CORPUSCULAR VOLUME [3]: 63.9 fL
MONOCYTE [3]: 1.67%
NEUTROPHIL [3]: 8%
NUCLEATED RED BLOOD CELLS [3]: 0.33 /100WBC
PLATELET COUNT [3]: 1335 x10E3/uL
ALANINE AMINOTRANSFERASE [3]: 50.67 u/L
ALBUMIN [3]: 3.9 G/DL
ALKALINE PHOSPHATASE [3]: 377.67 u/L
ASPARTATE AMINOTRANSFERASE [3]: 91 u/L
BLOOD UREA NITROGEN [3]: 15 mg/dL
CARBON DIOXIDE [3]: 25.67 mmol/L
CHLORIDE [3]: 102 MEQ/L
CHOLESTEROL [3]: 61.33 mg/dL
CREATINE PHOSPHOKINASE [3]: 251.67 u/L
CREATININE [3]: 0.12 mg/dL
GLUCOSE [3]: 152 mg/dL
LACTATE DEHYDROGENASE [3]: 249 u/L
LIPASE [3]: 9 u/L
PHOSPHORUS [3]: 13.2 mg/dL
POTASSIUM [3]: 6.44 MEQ/L
SODIUM [3]: 143.4 MEQ/L
TOTAL BILIRUBIN [3]: 0.13 mg/dL
TOTAL PROTEIN [3]: 5.73 G/DL
URIC ACID [3]: 1.43 mg/dL
ABSOLUTE BASOPHIL [4]: 0 CELLS/uL
ABSOLUTE EOSINOPHIL [4]: 62 CELLS/uL
ABSOLUTE LYMPHOCYTE [4]: 7311 CELLS/uL
ABSOLUTE MONOCYTE [4]: 83 CELLS/uL
ABSOLUTE SEGMENTED NEUTROPHIL [4]: 677.33 CELLS/uL
BASOPHIL [4]: 0%
EOSINOPHIL [4]: 0.67%
ERYTHROCYTE COUNT [4]: 5.58 x10E6/uL
HEMATOCRIT [4]: 34.4%
HEMOGLOBIN [4]: 13.3 G/DL
LEUKOCYTE COUNT [4]: 8.13 x10E3/uL
LYMPHOCYTE [4]: 90.33%
MEAN CORPUSCULAR HEMOGLOBIN [4]: 23.87 pg
MEAN CORPUSCULAR HEMOGLOBIN CONCENTRATION [4]: 38.67 G/DL
MEAN CORPUSCULAR VOLUME [4]: 61.8 fL
MONOCYTE [4]: 1%
NEUTROPHIL [4]: 8%
NUCLEATED RED BLOOD CELLS [4]: 0 /100WBC
PLATELET COUNT [4]: 1046.67 x10E3/uL
ALANINE AMINOTRANSFERASE [4]: 55.33 u/L
ALBUMIN [4]: 3.93 G/DL
ALKALINE PHOSPHATASE [4]: 372 u/L
ASPARTATE AMINOTRANSFERASE [4]: 82.67 u/L
BLOOD UREA NITROGEN [4]: 16.33 mg/dL
CARBON DIOXIDE [4]: 31.67 mmol/L
CHLORIDE [4]: 102.33 MEQ/L
CHOLESTEROL [4]: 65.33 mg/dL
CREATINE PHOSPHOKINASE [4]: 351.67 u/L
CREATININE [4]: 0.16 mg/dL
GLUCOSE [4]: 143.67 mg/dL
LACTATE DEHYDROGENASE [4]: 104.67 u/L
LIPASE [4]: 10 u/L
PHOSPHORUS [4]: 10.67 mg/dL
POTASSIUM [4]: 5.96 MEQ/L
SODIUM [4]: 145.73 MEQ/L
TOTAL BILIRUBIN [4]: 0.13 mg/dL
TOTAL PROTEIN [4]: 5.97 G/DL
URIC ACID [4]: 0.63 mg/dL
